Experimental data published in patent US20240252464A1, “A SELF-EMULSIFYING DRUG DELIVERY FORMULATION WITH IMPROVED ORAL BIOAVAILABILITY OF LIPOPHILIC COMPOUND” (Avantsar Sdn Bhd, priority 2022, published 2024).

Details: rat, in vivo
Method: Non self-emulsifying tocotrienol oily suspension was prepared by mixing tocotrienols rich fraction (TRF) and palm olein at a ratio of 1:1. The total tocotrienol administered per rat was equivalent to 10 mg/kg body weight. The single dose of ketoconazole (suspension in water) was administered at a dose of 32 mg/kg body weight.
The rats were fasted overnight for at least 12 hours before the study. During Phase 1, the rats in Group 1 were given only the tocotrienol oily suspension while Group 2 were given a single dose of ketoconazole half an hour prior to administration of tocotrienol. Phase 2 was carried out after 1 week of wash-out period. Blood samples were taken from the tail vein according to the following predetermined sampling interval. The blood levels of individual tocotrienol isomers at each time point was analysed using HPLC assay.

Increase in bioavailability compared with Control, Alpha-tocotrienol: 2.1-fold | Increase in bioavailability compared with Control, Delta-tocotrienol: 2.6-fold | Increase in bioavailability compared with Control, Gamma-tocotrienol: 3.0-fold | Enhancement of bioavailability of tocotrienols compared to without ketoconazole (po): 2-3 folds
Structure (SMILES): CC(=O)N1CCN(c2ccc(OCC3COC(Cn4ccnc4)(c4ccc(Cl)cc4Cl)O3)cc2)CC1 (stereo not shown) [Ketoconazole, ketoconazole]
